Test results from BigSolDB 2.1.

CCCCCCCCCCCCCCCc1cccc(O)c1
Conditions	solubility (mole fraction)
in acetone, 289.08 K	0.253
in acetone, 291.32 K	0.272
in acetone, 293.55 K	0.309
in acetone, 295.54 K	0.33
in acetone, 297.54 K	0.351
in acetone, 299.33 K	0.373
in ethanol, 291.47 K	0.158
in ethanol, 293.83 K	0.181
in ethanol, 295.56 K	0.199
in ethanol, 297.55 K	0.228
in ethanol, 299.15 K	0.252
in ethanol, 301.28 K	0.278
in ethyl acetate, 290.83 K	0.236
in ethyl acetate, 295.86 K	0.299
in ethyl acetate, 297.3 K	0.323
in ethyl acetate, 300.12 K	0.352
in ethyl acetate, 302.14 K	0.38
in n-butanol, 293.55 K	0.239
in n-butanol, 295.36 K	0.263
in n-butanol, 297.33 K	0.282
in n-butanol, 299.16 K	0.302
in n-butanol, 300.86 K	0.321
in n-butanol, 302.94 K	0.349
in tetrachloromethane, 288.46 K	0.0912
in tetrachloromethane, 290.45 K	0.101
in tetrachloromethane, 292.51 K	0.124
in tetrachloromethane, 294.42 K	0.15
in tetrachloromethane, 296.55 K	0.18
in tetrachloromethane, 298.36 K	0.21
in tetrachloromethane, 300.24 K	0.242
in toluene, 295.25 K	0.122
in toluene, 297.45 K	0.14
in toluene, 299.2 K	0.16
in toluene, 301.23 K	0.186
in toluene, 303.66 K	0.228
in toluene, 305.47 K	0.262
